From patent US11566007B2, “Ras inhibitors” (Revolution Medicines, Inc., priority 2019, dated 2023)

Assays:
NCI-H358 (K-Ras G12C) = assay: CellTiter-Glo cell viability assay, NCI-H358; assay type: cell-based, human; conditions: Homo sapiens, NCI-H358, 120 h, NCI-H358, 5-day treatment; class symbols; read-out: Additional H358 Cell Viability assay data (K-Ras G12C, IC50)
How it was run: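 Viability of K-Ras mutant lines is measured by ATP luminescence after five days of compound treatment. Percent of DMSO control is calculated and dose-response data are fitted with a four-parameter logistic equation.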

K-Ras G12C = K-Ras G12C (Homo sapiens (Human), UniProt P01116+P62937, G12C); assay: Ras-Raf (BRAF RBD) disruption / FRET / MOA assay, KRAS G12C; assay type: biochemical; conditions: KRAS G12C; Ras-Raf disruption/FRET/MOA assay; read-out: IC50* KRAS G12C FRET data
How it was run: (§1)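 Compound-driven ternary complex of nucleotide-loaded Ras with cyclophilin A, disrupting BRAF RBD binding. 10-point 3-fold dilution from 30 μM final, 3 h at 25° C, then anti-His Eu-W1024 (10 nM) and anti-GST allophycocyanin (50 nM) for 1.5 h. IC50 from TR-FRET ratio decrease versus DMSO.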

K-Ras G13C = K-Ras G13C (Homo sapiens (Human), UniProt P01116+P62937, G13C); assay: Ras-Raf (BRAF RBD) disruption / FRET / MOA assay, KRAS G13C; assay type: biochemical; conditions: KRAS G13C; Ras-Raf disruption/FRET/MOA assay; read-out: IC50* KRAS G13C FRET data
How it was run: as §1

KRAS G12S = KRAS G12S (Homo sapiens (Human), UniProt P01116+P62937, G12S); assay: Ras-Raf (BRAF RBD) disruption / FRET / MOA assay, KRAS G12S; assay type: biochemical; conditions: Ras-Raf disruption/FRET/MOA assay; class symbols; read-out: KRAS G12S FRET data IC50
How it was run: as §1

KRAS G12D = KRAS G12D (Homo sapiens (Human), UniProt P01116+P62937, G12D); assay: Ras-Raf (BRAF RBD) disruption / FRET / MOA assay, KRAS G12D; assay type: biochemical; conditions: Ras-Raf disruption/FRET/MOA assay; class symbols; read-out: KRAS G12D FRET data IC50
How it was run: as §1

KRAS G12V = KRAS G12V (Homo sapiens (Human), UniProt P01116+P62937, G12V); assay: Ras-Raf (BRAF RBD) disruption / FRET / MOA assay, KRAS G12V; assay type: biochemical; conditions: read-out: IC50* KRAS G12V FRET data
How it was run: as §1

KRAS WT = KRAS WT (Homo sapiens (Human), UniProt P01116+P62937); assay: Ras-Raf (BRAF RBD) disruption / FRET / MOA assay, KRAS WT; assay type: biochemical; conditions: read-out: IC50* KRAS WT FRET data
How it was run: as §1

KRAS G13D = KRAS G13D (Homo sapiens (Human), UniProt P01116+P62937, G13D); assay: Ras-Raf (BRAF RBD) disruption / FRET / MOA assay, KRAS G13D; assay type: biochemical; conditions: read-out: IC50* KRAS G13D FRET data
How it was run: as §1

KRAS Q61H = KRAS Q61H (Homo sapiens (Human), UniProt P01116+P62937, Q61H); assay: Ras-Raf (BRAF RBD) disruption / FRET / MOA assay, KRAS Q61H; assay type: biochemical; conditions: Ras-Raf disruption/FRET/MOA assay; class symbols; read-out: KRAS Q61H FRET data IC50
How it was run: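 Compounds (30 μM top final, 10-point 3-fold dilutions) incubated 3 h at 25° C with nucleotide-loaded Ras, cyclophilin A and BRAF RBD. Detection with 10 nM anti-His Eu-W1024 and 50 nM anti-GST allophycocyanin over another 1.5 h. Lowered TR-FRET ratio relative to DMSO wells gives IC50.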

NRAS G12C = NRAS G12C (Homo sapiens (Human), UniProt P01111+P62937, G12C); assay: Ras-Raf (BRAF RBD) disruption / FRET / MOA assay, NRAS G12C; assay type: biochemical; conditions: read-out: IC50* NRAS G12C FRET data
How it was run: as §1

NRAS Q61R = NRAS Q61R (Homo sapiens (Human), UniProt P01111+P62937, Q61R); assay: Ras-Raf (BRAF RBD) disruption / FRET / MOA assay, NRAS Q61R; assay type: biochemical; conditions: NRAS Q61R; Ras-Raf disruption/FRET/MOA assay; read-out: IC50* NRAS Q61R FRET data
Experimental: (§2) The purpose of this biochemical assay is to measure the ability of test compounds to facilitate ternary complex formation between a nucleotide-loaded Ras isoform and cyclophilin A; the resulting ternary complex disrupts binding to a BRAF^RBD construct, inhibiting Ras signaling through a RAF effector.
(§3) […]. Compound is present in plate wells as a 10-point 3-fold dilution series starting at a final concentration of 30 μM. After incubation at 25° C. for 3 hours, a mixture of Anti-His Eu-W1024 and anti-GST allophycocyanin is then added to assay sample wells at final concentrations of 10 nM and 50 nM, respectively, and the reaction incubated for an additional 1.5 hours. […] Compounds that facilitate disruption of a Ras:RAF complex are identified as those eliciting a decrease in the TR-FRET ratio relative to DMSO control wells.
(§4) Note—The following protocol describes a procedure for monitoring disruption of K-Ras G12C (GMP-PNP) binding to BRAF^RBD by a compound of the invention. This protocol may also be executed substituting other Ras proteins or nucleotides.
(§5) The purpose of this biochemical assay was to measure the ability of test compounds to facilitate ternary complex formation between a nucleotide-loaded K-Ras isoform and Cyclophilin A; the resulting ternary complex disrupts binding to a BRAF^RBD construct, inhibiting K-Ras signaling through a RAF effector. Data is reported as IC50 values.
as §3, with “Compound was” for “Compound is”, “allophycocyanin was” for “allophycocyanin is”, “a K-Ras:RAF” for “a Ras:RAF”, “complex were” for “complex are”

NRAS Q61K = NRAS Q61K (Homo sapiens (Human), UniProt P01111+P62937, Q61K); assay: Ras-Raf (BRAF RBD) disruption / FRET / MOA assay, NRAS Q61K; assay type: biochemical; conditions: NRAS Q61K; Ras-Raf disruption/FRET/MOA assay; read-out: IC50* NRAS Q61K FRET data
Experimental: as §2, §3, §4, §5
as §3, with “Compound was” for “Compound is”, “allophycocyanin was” for “allophycocyanin is”, “a K-Ras:RAF” for “a Ras:RAF”, “complex were” for “complex are”

NRAS WT = NRAS WT (Homo sapiens (Human), UniProt P01111+P62937); assay: Ras-Raf (BRAF RBD) disruption / FRET / MOA assay, NRAS WT; assay type: biochemical; conditions: read-out: IC50* NRAS WT FRET data
Experimental: as §2, §3, §4, §5
as §3, with “Compound was” for “Compound is”, “allophycocyanin was” for “allophycocyanin is”, “a K-Ras:RAF” for “a Ras:RAF”, “complex were” for “complex are”

[1] = tested on: NCI-H358 cells (K-Ras G12C); assay: Potency assay: pERK in NCI-H358 cells; assay type: cell-based, human; conditions: Homo sapiens, NCI-H358; H358 KRAS G12C; read-out: pERK EC50
How it was run: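 4 h cpd, 37 °C; 10-pt 3-fold series, 10 mM DMSO top stock, duplicates. Readout pERK: AlphaLISA SureFire Ultra or In-Cell Western (IR-800CW secondary, DRAQ5 DNA stain). IC50, 4-PL fit vs log conc.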

KRAS WT, sequence (P01116-2 other isoform, or with tags, fused parts or gaps): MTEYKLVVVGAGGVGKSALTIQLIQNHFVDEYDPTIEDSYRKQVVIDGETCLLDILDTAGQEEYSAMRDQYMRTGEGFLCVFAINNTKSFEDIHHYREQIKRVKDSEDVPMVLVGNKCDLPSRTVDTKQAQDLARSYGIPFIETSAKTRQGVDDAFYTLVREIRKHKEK
KRAS WT, sequence (P62937 whole entry): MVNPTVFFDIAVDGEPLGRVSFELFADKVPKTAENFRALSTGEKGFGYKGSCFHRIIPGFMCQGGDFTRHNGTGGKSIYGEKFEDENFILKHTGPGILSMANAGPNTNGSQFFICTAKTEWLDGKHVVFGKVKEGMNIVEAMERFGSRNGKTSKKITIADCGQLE
KRAS G12S, sequence (P01116-2 other isoform, or with tags, fused parts or gaps G12S): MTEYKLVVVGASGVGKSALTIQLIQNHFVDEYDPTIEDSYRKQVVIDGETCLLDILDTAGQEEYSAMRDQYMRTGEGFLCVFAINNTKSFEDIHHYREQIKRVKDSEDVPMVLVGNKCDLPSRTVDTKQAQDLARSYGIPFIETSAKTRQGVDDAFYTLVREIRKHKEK
KRAS G12S, sequence (P62937 whole entry): as the sequence (P62937 whole entry) above
NRAS Q61R, sequence (P01111 whole entry Q61R, canonical isoform): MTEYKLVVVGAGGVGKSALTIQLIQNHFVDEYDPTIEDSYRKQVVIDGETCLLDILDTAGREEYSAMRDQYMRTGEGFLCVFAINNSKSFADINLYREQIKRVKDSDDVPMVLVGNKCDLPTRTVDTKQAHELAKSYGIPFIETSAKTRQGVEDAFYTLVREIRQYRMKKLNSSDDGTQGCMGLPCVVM
NRAS Q61R, sequence (P62937 whole entry, canonical isoform): as the sequence (P62937 whole entry) above
K-Ras G12C, sequence (P01116-2 other isoform, or with tags, fused parts or gaps G12C): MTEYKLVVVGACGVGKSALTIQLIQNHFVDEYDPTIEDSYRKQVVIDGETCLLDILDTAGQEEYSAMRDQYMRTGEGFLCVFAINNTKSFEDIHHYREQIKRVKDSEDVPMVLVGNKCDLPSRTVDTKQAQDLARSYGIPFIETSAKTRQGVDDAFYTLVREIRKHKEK
K-Ras G12C, sequence (P62937 whole entry): as the sequence (P62937 whole entry) above
KRAS G12D, sequence (P01116-2 other isoform, or with tags, fused parts or gaps G12D): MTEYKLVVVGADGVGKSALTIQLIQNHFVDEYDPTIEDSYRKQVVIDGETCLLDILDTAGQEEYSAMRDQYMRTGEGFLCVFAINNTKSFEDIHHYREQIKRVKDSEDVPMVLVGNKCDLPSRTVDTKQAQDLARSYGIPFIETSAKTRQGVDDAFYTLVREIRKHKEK
KRAS G12D, sequence (P62937 whole entry): as the sequence (P62937 whole entry) above
NRAS G12C, sequence (P01111 whole entry G12C): as the sequence (P01111 whole entry Q61R, canonical isoform) above, with G12C, R61Q counted along it
NRAS G12C, sequence (P62937 whole entry): as the sequence (P62937 whole entry) above
NRAS WT, sequence (P01111 whole entry): as the sequence (P01111 whole entry Q61R, canonical isoform) above, with R61Q counted along it
NRAS WT, sequence (P62937 whole entry): as the sequence (P62937 whole entry) above
KRAS G12V, sequence (P01116-2 other isoform, or with tags, fused parts or gaps G12V): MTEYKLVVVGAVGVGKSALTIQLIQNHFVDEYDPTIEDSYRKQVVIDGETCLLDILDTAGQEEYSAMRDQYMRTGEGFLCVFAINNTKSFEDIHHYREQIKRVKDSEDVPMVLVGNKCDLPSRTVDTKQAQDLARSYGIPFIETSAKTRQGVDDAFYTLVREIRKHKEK
KRAS G12V, sequence (P62937 whole entry): as the sequence (P62937 whole entry) above
KRAS Q61H, sequence (P01116-2 other isoform, or with tags, fused parts or gaps Q61H): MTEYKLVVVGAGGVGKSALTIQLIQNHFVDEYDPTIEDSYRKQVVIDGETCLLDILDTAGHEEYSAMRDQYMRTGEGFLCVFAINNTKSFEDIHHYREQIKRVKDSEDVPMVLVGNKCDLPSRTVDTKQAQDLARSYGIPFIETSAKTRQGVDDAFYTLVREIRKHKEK
KRAS Q61H, sequence (P62937 whole entry): as the sequence (P62937 whole entry) above
K-Ras G13C, sequence (P01116-2 other isoform, or with tags, fused parts or gaps G13C): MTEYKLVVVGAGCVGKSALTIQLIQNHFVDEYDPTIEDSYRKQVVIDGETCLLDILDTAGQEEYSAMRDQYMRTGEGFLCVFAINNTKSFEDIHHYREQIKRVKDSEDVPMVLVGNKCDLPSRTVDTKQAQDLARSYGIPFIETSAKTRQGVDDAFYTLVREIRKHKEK
K-Ras G13C, sequence (P62937 whole entry): as the sequence (P62937 whole entry) above
KRAS G13D, sequence (P01116-2 other isoform, or with tags, fused parts or gaps G13D): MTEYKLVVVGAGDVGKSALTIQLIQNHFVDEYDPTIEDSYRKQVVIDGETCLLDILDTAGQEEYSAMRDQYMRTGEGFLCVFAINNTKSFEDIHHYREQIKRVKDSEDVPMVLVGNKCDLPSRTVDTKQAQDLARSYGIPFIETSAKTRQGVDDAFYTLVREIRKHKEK
KRAS G13D, sequence (P62937 whole entry): as the sequence (P62937 whole entry) above
NRAS Q61K, sequence (P01111 whole entry Q61K): as the sequence (P01111 whole entry Q61R, canonical isoform) above, with R61K counted along it
NRAS Q61K, sequence (P62937 whole entry): as the sequence (P62937 whole entry) above

| IC50 (NCI-H358 (K-Ras G12C)) [µM] | IC50 (K-Ras G12C) [µM] | IC50 (K-Ras G13C) [µM] | IC50 (KRAS G12S) [µM] | IC50 (KRAS G12D) [µM] | IC50 (KRAS G12V) [µM] | IC50 (KRAS WT) [µM] | IC50 (KRAS G13D) [µM] | IC50 (KRAS Q61H) [µM] | IC50 (NRAS G12C) [µM] | IC50 (NRAS Q61R) [µM] | IC50 (NRAS Q61K) [µM] | IC50 (NRAS WT) [µM] | EC50 [1] [µM] | SMILES |
| --- | --- | --- | --- | --- | --- | --- | --- | --- | --- | --- | --- | --- | --- | --- |
| > 1 | 1 to 10 | > 10 | > 10 | > 10 | > 10 | > 10 | > 10 | > 10 | 1 to 10 | > 10 | > 10 | > 10 | – | C=CC(=O)N1CC[C@H](C(=O)N(C)[C@H](C(=O)N[C@H]2CC3=NN=C(S3)c3ccc4c(c3)c(c(-c3cccnc3[C@H](C)OC)n4CC)CC(C)(C)COC(=O)[C@@H]3CCCN(N3)C2=O)C(C)C)C1 (atropisomer, axis not shown) [Example A248] |
| 0.1 to 1 | > 10 | > 10 | > 10 | > 10 | > 10 | > 10 | > 10 | > 10 | > 10 | > 10 | > 10 | > 10 | – | CC#CC(=O)N1CC[C@H](C(=O)N(C)[C@H](C(=O)N[C@H]2Cc3cccc(c3)-c3ccc4c(c3)c(c(-c3cccnc3[C@H](C)OC)n4C#N)CC(C)(C)COC(=O)[C@@H]3CCCN(N3)C2=O)C(C)C)C1 (atropisomer, axis not shown) [Example A304] |
| – | 0.01 to 0.1 | 1 to 10 | > 10 | > 10 | > 10 | > 10 | > 10 | > 10 | 0.01 to 0.1 | > 10 | > 10 | > 10 | < 5 | CCn1c(-c2cccnc2[C@H](C)OC)c2c3cc(ccc31)N1CCO[C@@H](C[C@H](NC(=O)[C@H](C(C)C)N3CC[C@@]4(CCN(C(=O)C#CC(C)(C)N(C)C)C4)C3=O)C(=O)N3CCC[C@H](N3)C(=O)OCC(C)(C)C2)C1 (atropisomer, axis not shown) [Example A614] |

| SMILES | IC50 (NCI-H358 (K-Ras G12C)) [µM] | IC50 (K-Ras G12C) [µM] | IC50 (K-Ras G13C) [µM] | IC50 (KRAS G12S) [µM] | IC50 (KRAS G12D) [µM] | IC50 (KRAS G12V) [µM] | IC50 (KRAS WT) [µM] | IC50 (KRAS G13D) [µM] | IC50 (KRAS Q61H) [µM] | IC50 (NRAS G12C) [µM] | IC50 (NRAS Q61R) [µM] | IC50 (NRAS Q61K) [µM] | IC50 (NRAS WT) [µM] | EC50 [1] [µM] |
| --- | --- | --- | --- | --- | --- | --- | --- | --- | --- | --- | --- | --- | --- | --- |
| C=CC(=O)N(C)C(=O)N(C)[C@H](C(=O)N[C@H]1Cc2nc(cs2)-c2ccc3c(c2)c(c(-c2cccnc2[C@H](C)OC)n3CC)CC(C)(C)COC(=O)[C@@H]2CCCN(N2)C1=O)C(C)C (atropisomer, axis not shown) [Example A355] | 0.1 to 1 | > 10 | > 10 | > 10 | > 10 | > 10 | > 10 | > 10 | > 10 | > 10 | > 10 | > 10 | > 10 | – |
